molecular target: T1, HER2 (pY 1248) in Calu3 cells (Homo sapiens, UniProt P04626); test: Inhibition of HER2 phosphorylation in Calu3 tumor cell line; format: cell-based; conditions: Calu-3, compound concentration 1 μM, 16 h incubation, percentage of the DMSO treated control, read-out: Percent inhibition of HER2-phosphorylation
T1 construct: endogenous in cells; host or cells: Calu-3 (HTB-55)
Method: Inhibition of HER2 Phosphorylation in Calu3 Tumor Cell Line
2×10^5 Calu3 cells [Calu-3 (HTB-55) cells available from ATTC] per well were plated 12-well plate. After 4 days cells were starved for 16 h in DMEM/0.5% FCS/1% Glutamine. During this time cells were incubated with 1 μM of the compound. Afterwards cells were lysed in lyses buffer containing 1% Triton, 10% Glycerol, 1 mM EGTA, 1.5 mM MgCl2, 150 mM NaCl, 50 mM Hepes pH 7.5, 1 mM PMSF, 10 μg/mL Aprotinin and […] Orthovanadate. Cell lysates were analyzed on a SDS PAGE and after transfer to a nitrocellulose membrane detected with an antibody specifically recognizing the pY 1248 in HER2. Inhibition of HER2 phosphorylation is calculated as percentage of the DMSO treated control. This percentage was calculated according to the following formula: Inhibition in %=100−(Phosphorylated-HER2-Signal of Test Sample*100/Phosphorylated-HER2-Signal DMSO-control).

T1 sequence (P04626 23-1255): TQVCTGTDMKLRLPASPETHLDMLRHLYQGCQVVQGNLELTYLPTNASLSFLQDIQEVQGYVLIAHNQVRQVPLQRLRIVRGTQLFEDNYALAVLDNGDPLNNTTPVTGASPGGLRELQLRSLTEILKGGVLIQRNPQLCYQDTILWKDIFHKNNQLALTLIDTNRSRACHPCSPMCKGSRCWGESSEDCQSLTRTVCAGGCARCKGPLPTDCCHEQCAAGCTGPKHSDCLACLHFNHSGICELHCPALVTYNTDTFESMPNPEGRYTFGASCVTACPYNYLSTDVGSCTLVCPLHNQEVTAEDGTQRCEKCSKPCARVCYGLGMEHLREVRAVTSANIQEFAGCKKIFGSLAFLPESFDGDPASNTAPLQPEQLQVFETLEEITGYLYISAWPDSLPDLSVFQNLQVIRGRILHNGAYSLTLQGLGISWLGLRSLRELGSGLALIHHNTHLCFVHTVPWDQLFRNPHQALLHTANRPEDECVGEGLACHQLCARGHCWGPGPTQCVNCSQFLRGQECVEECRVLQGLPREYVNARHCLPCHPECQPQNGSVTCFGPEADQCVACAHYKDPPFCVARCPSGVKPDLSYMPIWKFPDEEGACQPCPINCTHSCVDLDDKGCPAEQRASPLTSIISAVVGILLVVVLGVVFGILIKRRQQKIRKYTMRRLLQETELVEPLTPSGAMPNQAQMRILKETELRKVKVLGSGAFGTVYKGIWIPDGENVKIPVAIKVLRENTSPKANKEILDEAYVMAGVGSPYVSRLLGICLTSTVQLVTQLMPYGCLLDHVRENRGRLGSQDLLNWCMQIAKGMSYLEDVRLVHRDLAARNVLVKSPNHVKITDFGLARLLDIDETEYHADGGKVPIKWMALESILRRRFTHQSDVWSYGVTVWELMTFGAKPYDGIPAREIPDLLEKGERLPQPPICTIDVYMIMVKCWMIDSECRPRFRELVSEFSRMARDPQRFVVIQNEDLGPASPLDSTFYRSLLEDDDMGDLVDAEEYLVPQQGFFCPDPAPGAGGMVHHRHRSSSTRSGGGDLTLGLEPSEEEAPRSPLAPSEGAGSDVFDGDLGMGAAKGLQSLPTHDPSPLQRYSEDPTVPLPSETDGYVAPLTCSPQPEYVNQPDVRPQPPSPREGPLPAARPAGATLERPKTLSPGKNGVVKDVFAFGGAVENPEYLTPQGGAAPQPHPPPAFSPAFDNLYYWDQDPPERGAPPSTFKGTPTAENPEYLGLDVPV

Row | SMILES | inhibition at 1 µM [%]
1 | FC(F)(F)Oc1ccc(/C=C/c2nc(COc3ccc(COCCn4ccnn4)cc3)co2)cc1 [example 4, 1-[2-(4-{2-[2-(E)-(4-Trifluoromethoxy-phenyl)-vinyl]-oxazol-4-ylmethoxy}-benzyloxy)-ethyl]-1H-[1,2,3]triazole] | 78.6
2 | FC(F)(F)c1ccc(/C=C/c2nc(COc3ccc(COCCn4ccnn4)cc3)co2)cc1 [reference compound 2, 1-[2-(4-{2-[(E)-2-(4-Trifluoromethyl-phenyl)-vinyl]-oxazol-4-ylmethoxy}-benzyloxy)-ethyl]-1H-[1,2,3]triazole, reference compound] | 54
3 | FC(F)Oc1ccc(/C=C/c2nc(COc3ccc(COCCn4ccnn4)cc3)co2)cc1 [example 1, 1-[2-(4-{2-[2-(E)-(4-Difluoromethoxy-phenyl)-vinyl]-oxazol-4-ylmethoxy}-benzyloxy)-ethyl]-1H-[1,2,3]triazole] | 69.6

Second part, the compound after the results:

Row | inhibition at 1 µM [%] | SMILES
4 | 85.8 | FC1(F)Oc2ccc(/C=C/c3nc(COc4ccc(COCCn5ccnn5)cc4)co3)cc2O1 [example 2, 1-[2-(4-{2-[2-(E)-(2,2-Difluoro-benzo[1,3]dioxol-5-yl)-vinyl]-oxazol-4-ylmethoxy}-benzyloxy)-ethyl]-1H-[1,2,3]triazole]
5 | 73.4 | FC(F)(F)Sc1ccc(/C=C/c2nc(COc3ccc(COCCn4ccnn4)cc3)co2)cc1 [example 3, 1-[2-(4-{2-[2-(E)-(4-Trifluoromethylsulfanyl-phenyl)-vinyl]-oxazol-4-ylmethoxy}-benzyloxy)-ethyl]-1H-[1,2,3]triazole]

system: not given; test: not given; conditions: not given

Row | melting point [°C] | SMILES
6 | 119 to 120 | Cc1cc(OCc2coc(C=Cc3ccc(OC(F)F)cc3)n2)ccc1COCCn1ccnn1 [Example 7, 1-[2-(4-{2-[2-(4-Difluoromethoxy-phenyl)-vinyl]-oxazol-4-ylmethoxy}-2-methyl-benzyloxy)-ethyl]-1H-[1,2,3]triazole]
7 | 84 to 85 | Cc1cc(OCc2coc(C=Cc3ccc(OC(F)(F)F)cc3)n2)ccc1COCCn1ccnn1 [Example 9, 1-[2-(2-Methyl-4-{2-[2-(4-trifluoromethoxy-phenyl)-vinyl]-oxazol-4-ylmethoxy}-benzyloxy)-ethyl]-1H-[1,2,3]triazole]
8 | 102 | Cc1cc(OCc2coc(C=Cc3ccc(SC(F)(F)F)cc3)n2)ccc1COCCn1ccnn1 [Example 8, 1-[2-(2-Methyl-4-{2-[2-(4-trifluoromethylsulfanyl-phenyl)-vinyl]-oxazol-4-ylmethoxy}-benzyloxy)-ethyl]-1H-[1,2,3]triazole]
